Our source for the EC50 values is patent publication US9200051B2, “Peptide compound” (TAKEDA PHARMACEUTICAL COMPANY LIMITED, priority 2013, dated 2015).

Structures are written as SMILES. Square brackets hold non-standard residues; d marks the D form. Peptide text beside a SMILES is read from it. * marks the point of attachment. αMeF = C[C@](N)(Cc1ccccc1)C(=O)O; Cha = N[C@@H](CC1CCCCC1)C(=O)O; Aib = CC(C)(N)C(=O)O; Bz = O=C(c1ccccc1)*

Assay type in all cases: cell-based
The target of one test is T1, human glucagon R (Homo sapiens, UniProt P47871).
T1 construct: expressed in transfected cells; host or cells: CHO-K1 (CRE-LUC/CHO-K1), plasmid hGlucagonR/pMSRα-neo
T1 sequence (P47871 26-477): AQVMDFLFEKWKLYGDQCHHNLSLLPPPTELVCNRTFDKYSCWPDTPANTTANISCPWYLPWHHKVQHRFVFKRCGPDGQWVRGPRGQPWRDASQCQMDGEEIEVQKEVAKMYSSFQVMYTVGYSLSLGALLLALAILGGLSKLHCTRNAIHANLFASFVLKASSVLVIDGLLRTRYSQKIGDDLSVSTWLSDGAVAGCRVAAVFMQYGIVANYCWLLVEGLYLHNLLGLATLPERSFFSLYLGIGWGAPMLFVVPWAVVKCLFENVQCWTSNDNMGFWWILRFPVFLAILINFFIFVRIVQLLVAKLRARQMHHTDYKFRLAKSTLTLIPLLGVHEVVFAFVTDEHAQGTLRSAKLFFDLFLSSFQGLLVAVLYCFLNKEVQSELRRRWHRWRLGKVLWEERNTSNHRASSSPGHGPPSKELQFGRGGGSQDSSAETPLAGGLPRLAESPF
Kind of test: Agonist activity against human glucagon R, CRE-luciferase reporter assay in hGlucagonR/CRE-LUC/CHO-K1 cells. In general terms: In a reporter assay the amount or activity of a reporter protein is the signal.

A further test concerns the target T2, human GIPR (Homo sapiens, UniProt P48546).
T2 construct: expressed in transfected cells; host or cells: CHO-K1 (CRE-LUC/CHO-K1), plasmid hGIPR/pMSRα-neo
T2 sequence (P48546 22-466): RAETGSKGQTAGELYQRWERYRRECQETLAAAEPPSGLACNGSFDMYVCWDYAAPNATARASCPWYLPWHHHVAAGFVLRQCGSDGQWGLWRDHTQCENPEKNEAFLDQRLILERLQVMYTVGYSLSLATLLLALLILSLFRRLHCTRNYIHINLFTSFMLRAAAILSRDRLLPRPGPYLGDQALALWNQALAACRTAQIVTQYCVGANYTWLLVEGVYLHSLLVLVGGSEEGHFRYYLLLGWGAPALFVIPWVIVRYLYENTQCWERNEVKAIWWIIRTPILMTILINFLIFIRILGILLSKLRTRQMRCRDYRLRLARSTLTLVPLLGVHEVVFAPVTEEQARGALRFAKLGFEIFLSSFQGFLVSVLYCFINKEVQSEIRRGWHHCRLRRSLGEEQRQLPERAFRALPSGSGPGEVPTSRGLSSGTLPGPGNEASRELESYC
Kind of test: Agonist activity against human GIPR, CRE-luciferase reporter assay (rise in intracellular cAMP) in hGIPR/CRE-LUC/CHO-K1 cells.

A further test deals with T3, human GLP-1R (Homo sapiens, UniProt P43220).
T3 construct: expressed in transfected cells; host or cells: CHO-K1, plasmids hGLP-1/pIRESneo3 and Cre-luc(Zeo)
T3 sequence (P43220 24-463): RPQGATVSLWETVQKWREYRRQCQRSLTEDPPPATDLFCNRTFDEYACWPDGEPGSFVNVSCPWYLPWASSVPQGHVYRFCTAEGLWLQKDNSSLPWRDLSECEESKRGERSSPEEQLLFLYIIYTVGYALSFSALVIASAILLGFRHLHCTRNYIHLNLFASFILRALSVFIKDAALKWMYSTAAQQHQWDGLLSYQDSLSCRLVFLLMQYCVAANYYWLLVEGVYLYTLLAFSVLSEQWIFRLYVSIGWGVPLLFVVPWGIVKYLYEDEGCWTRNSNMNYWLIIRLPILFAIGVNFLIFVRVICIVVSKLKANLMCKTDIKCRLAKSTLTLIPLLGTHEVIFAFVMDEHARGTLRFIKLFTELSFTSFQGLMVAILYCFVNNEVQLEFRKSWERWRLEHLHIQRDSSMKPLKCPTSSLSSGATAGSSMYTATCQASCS
Nature of the test: Agonist activity against human GLP-1R, CRE-luciferase reporter assay in hGLP-1R/CRE-luc/CHO-K1 cells.

The term EC50 denotes the concentration giving half of the maximal effect. Consider `CC[C@H](C)[C@H](NC(=O)C(C)(C)NC(=O)[C@H](Cc1ccc(O)cc1)NC(=O)[C@H](CC(=O)O)NC(=O)[C@H](CO)NC(=O)[C@@H](NC(=O)[C@](C)(Cc1ccccc1)NC(=O)[C@@H](NC(=O)CNC(=O)[C@H](CCC(=O)O)NC(=O)C(C)(C)NC(=O)[C@@H](N)Cc1ccc(O)cc1)[C@@H](C)O)[C@@H](C)O)C(=O)NC(C)(C)C(=O)N[C@@H](CC(C)C)C(=O)N[C@@H](CC(=O)O)C(=O)N[C@@H](CCCCN)C(=O)N[C@@H](CCC(N)=O)C(=O)N[C@@H](C)C(=O)N[C@@H](CCC(N)=O)C(=O)N[C@@H](CO)C(=O)N[C@@H](CCC(=O)O)C(=O)N[C@@H](Cc1ccccc1)C(=O)N[C@H](C(=O)N[C@@H](CCCCN)C(=O)N[C@@H](Cc1c[nH]c2ccccc12)C(=O)N[C@@H](CC(C)C)C(=O)N[C@@H](CC(C)C)C(=O)N[C@@H](CCCCN)C(=O)NCC(=O)NCC(=O)N1CCC[C@H]1C(=O)N[C@@H](CO)C(=O)N[C@@H](CO)C(=O)NCC(=O)N[C@@H](C)C(=O)N1CCC[C@H]1C(=O)N1CCC[C@H]1C(=O)N1CCC[C@H]1C(=O)N[C@@H](CO)C(N)=O)C(C)C` [Example 8] (H-Y[Aib]EGT[αMeF]TSDY[Aib]I[Aib]LDKQAQSEFVKWLLKGGPSSGAPPPS-NH2), for which the EC50 on human glucagon R was more than 1000 nM; on human GIPR it was 0.008 nM; on human GLP-1R it was 0.014 nM.
For `CC(C)C[C@H](NC(=O)[C@H](CC(C)C)NC(=O)[C@H](Cc1c[nH]c2ccccc12)NC(=O)[C@H](CCCCN)NC(=O)[C@@H](NC(=O)[C@H](Cc1ccccc1)NC(=O)[C@H](CCC(=O)O)NC(=O)[C@H](C)NC(=O)[C@H](CCC(N)=O)NC(=O)[C@H](C)NC(=O)[C@H](CCC(N)=O)NC(=O)[C@H](CCCCN)NC(=O)[C@H](CC(=O)O)NC(=O)[C@H](CC(C)C)NC(=O)[C@H](CC1CCCCC1)NC(=O)[C@H](CCCCN)NC(=O)C(C)(C)NC(=O)[C@H](Cc1ccc(O)cc1)NC(=O)[C@H](CC(=O)O)NC(=O)[C@H](CO)NC(=O)[C@@H](NC(=O)[C@](C)(Cc1ccccc1)NC(=O)[C@@H](NC(=O)CNC(=O)[C@H](CCC(=O)O)NC(=O)C(C)(C)NC(=O)[C@@H](N)Cc1ccc(O)cc1)[C@@H](C)O)[C@@H](C)O)C(C)C)C(=O)N[C@@H](CCCCN)C(=O)NCC(=O)NCC(=O)N1CCC[C@H]1C(=O)N[C@@H](CO)C(=O)N[C@@H](CO)C(=O)NCC(=O)N[C@@H](C)C(=O)N1CCC[C@H]1C(=O)N1CCC[C@H]1C(=O)N1CCC[C@H]1C(=O)N[C@@H](CO)C(=O)N[C@@H](CCCCN)C(N)=O` [Example 16] (H-Y[Aib]EGT[αMeF]TSDY[Aib]K[Cha]LDKQAQAEFVKWLLKGGPSSGAPPPSK-NH2) the same measures were more than 1000 nM, 0.0091 nM and 0.015 nM.
The corresponding values for `CC[C@H](C)[C@H](NC(=O)[C@H](C)NC(=O)[C@H](Cc1ccc(O)cc1)NC(=O)[C@H](CC(=O)O)NC(=O)[C@H](CO)NC(=O)[C@@H](NC(=O)[C@](C)(Cc1ccccc1)NC(=O)[C@@H](NC(=O)CNC(=O)[C@H](CCC(=O)O)NC(=O)C(C)(C)NC(=O)[C@@H](N)Cc1ccc(O)cc1)[C@@H](C)O)[C@@H](C)O)C(=O)NC(C)(C)C(=O)N[C@@H](CC(C)C)C(=O)N[C@@H](CC(=O)O)C(=O)N[C@@H](CCCCN)C(=O)N[C@@H](CCC(N)=O)C(=O)N[C@@H](C)C(=O)N[C@@H](CCC(N)=O)C(=O)N[C@@H](CO)C(=O)N[C@@H](CCC(=O)O)C(=O)N[C@@H](Cc1ccccc1)C(=O)N[C@H](C(=O)N[C@@H](CCCCN)C(=O)N[C@@H](Cc1c[nH]c2ccccc12)C(=O)N[C@@H](CC(C)C)C(=O)N[C@@H](CC(C)C)C(=O)N[C@@H](CCCCN)C(=O)NCC(=O)NCC(=O)N1CCC[C@H]1C(=O)N[C@@H](CO)C(=O)N[C@@H](CO)C(=O)NCC(=O)N[C@@H](C)C(=O)N1CCC[C@H]1C(=O)N1CCC[C@H]1C(=O)N1CCC[C@H]1C(=O)N[C@@H](CO)C(=O)N[C@@H](CCCCN)C(N)=O)C(C)C` [Example 3] (H-Y[Aib]EGT[αMeF]TSDYAI[Aib]LDKQAQSEFVKWLLKGGPSSGAPPPSK-NH2) are more than 1000 nM, 0.0071 nM and 0.013 nM.
The corresponding values for `CC[C@H](C)[C@H](NC(=O)C(C)(C)NC(=O)[C@H](Cc1ccc(O)cc1)NC(=O)[C@H](CC(=O)O)NC(=O)[C@H](CO)NC(=O)[C@@H](NC(=O)[C@](C)(Cc1ccccc1)NC(=O)[C@@H](NC(=O)CNC(=O)[C@H](CCC(=O)O)NC(=O)C(C)(C)NC(=O)[C@@H](N)Cc1ccc(O)cc1)[C@@H](C)O)[C@@H](C)O)C(=O)NC(C)(C)C(=O)N[C@@H](CC(C)C)C(=O)N[C@@H](CC(=O)O)C(=O)N[C@@H](CCCCN)C(=O)N[C@@H](CCC(N)=O)C(=O)N[C@@H](C)C(=O)N[C@@H](CCC(N)=O)C(=O)N[C@@H](CO)C(=O)N[C@@H](CCC(=O)O)C(=O)N[C@@H](Cc1ccccc1)C(=O)N[C@H](C(=O)N[C@@H](CCCCN)C(=O)N[C@@H](Cc1c[nH]c2ccccc12)C(=O)N[C@@H](CC(C)C)C(=O)N[C@@H](CC(C)C)C(=O)N[C@@H](CCCCN)C(=O)NCC(=O)NCC(=O)N1CCC[C@H]1C(=O)N[C@@H](CO)C(=O)N[C@@H](CO)C(=O)NCC(=O)N[C@@H](C)C(=O)N1CCC[C@H]1C(=O)N1CCC[C@H]1C(=O)N1CCC[C@H]1C(=O)N[C@@H](CO)C(=O)N[C@@H](CCCCN)C(N)=O)C(C)C` [Example 4] (H-Y[Aib]EGT[αMeF]TSDY[Aib]I[Aib]LDKQAQSEFVKWLLKGGPSSGAPPPSK-NH2) are more than 1000 nM, 0.0049 nM and 0.0099 nM.
For the compound `CC[C@H](C)[C@H](NC(=O)C(C)(C)NC(=O)[C@H](Cc1ccc(O)cc1)NC(=O)[C@H](CC(=O)O)NC(=O)[C@H](CO)NC(=O)[C@@H](NC(=O)[C@](C)(Cc1ccccc1)NC(=O)[C@@H](NC(=O)CNC(=O)[C@H](CCC(=O)O)NC(=O)C(C)(C)NC(=O)[C@H](Cc1ccc(O)cc1)NC(=O)c1ccccc1)[C@@H](C)O)[C@@H](C)O)C(=O)NC(C)(C)C(=O)N[C@@H](CC(C)C)C(=O)N[C@@H](CC(=O)O)C(=O)N[C@@H](CCCCN)C(=O)N[C@@H](CCC(N)=O)C(=O)N[C@@H](C)C(=O)N[C@@H](CCC(N)=O)C(=O)N[C@@H](C)C(=O)N[C@@H](CCC(=O)O)C(=O)N[C@@H](Cc1ccccc1)C(=O)N[C@H](C(=O)N[C@@H](CCCCN)C(=O)N[C@@H](Cc1c[nH]c2ccccc12)C(=O)N[C@@H](CC(C)C)C(=O)N[C@@H](CC(C)C)C(=O)N[C@@H](CCCCN)C(=O)NCC(=O)NCC(=O)N1CCC[C@H]1C(=O)N[C@@H](CO)C(=O)N[C@@H](CO)C(=O)NCC(=O)N[C@@H](C)C(=O)N1CCC[C@H]1C(=O)N1CCC[C@H]1C(=O)N1CCC[C@H]1C(=O)N[C@@H](CO)C(=O)N[C@@H](CCCCN)C(N)=O)C(C)C` [Example 19] (Bz-Y[Aib]EGT[αMeF]TSDY[Aib]I[Aib]LDKQAQAEFVKWLLKGGPSSGAPPPSK-NH2), the concentration giving a half-maximal response (EC50) was more than 1000 nM on human glucagon R, 0.024 nM at human GIPR and 0.037 nM on human GLP-1R.
